Laboratory results reported in patent US11090321B2, “Mixture of non-digestible oligosaccharides for stimulating the immune system” (N.V. Nutricia, priority 2009, dated 2021).

Tested on: C57BL/6 mice
Assay: Delayed-type hypersensitivity (DTH) ear swelling response after Influvac vaccination in diet-supplemented mice
Assay type: in vivo, mouse
Protocol: The effect of diets comprising 2′-FL and/or betagalacto-oligosaccharides was tested in a mouse model wherein a response to an antigen is measured by a delayed-type hypersensitivity (DTH) response. This DTH response in the ears after local challenge with an antigen present in a vaccine is a measure of Th1 cell proliferation. During response to infection and/or vaccination Th1 cells proliferate in response to the challenge with the antigen. These Th1 cells infiltrate the ear when the ear is subsequently challenged with the antigen and cause swelling. Infiltration with the Th1 cells in the ear takes about 24 h and the swelling is therefore delayed. The more Th1 cells proliferated during initial vaccination and/or infection, the more DTH upon challenging with the antigen is observed.
6-8 Weeks old female C57BL/6 mice (Charles River) received semi-purified AIN-93G-based diets (Research Diet Service, Wijk bij Duurstede, the Netherlands), comprising
1) 1 wt % betagalacto-oligosaccharide (GOS, source Vivinal GOS, Borculo Domo), fructo-oligosaccharide (FOS, Source RaftilineHP, Orafti) and galacturonic acid oligosaccharide (source AOS) in a 9:1:1.1 ratio. AOS were produced from pectin (Südzucker AG, Mannheim, Germany), with a DP of 1-20. It consists of approximately 75% galacturonic acid oligomers, based on total weight,
2) 1 wt % 2′fucosyllactose (2′-FL),
3) 1 wt % betagalacto-oligosaccharides, fructo-oligosaccharides and galacturonic acid oligosaccharide (AOS) in a 9:1:1.1 ratio and 1 wt % 2′-FL.
4) 0.5 wt % betagalacto-oligosaccharides, fructo-oligosaccharides and galacturonic acid oligosaccharide (AOS) in a 9:1:1.1 ratio and 0.5 wt % 2′-FL.
All groups were compared to the unsupplemented control diet (control and sham control group). Dietary supplementation started 14 days before the first vaccination and lasted until the end of the experiment, 31 days after the first vaccination.
Vaccination experiments were performed using Influvac (Solvay Pharmaceuticals, Weesp, the Netherlands) from season 2005/2006. The mice received a primary vaccination and a booster vaccination, consisting of a subcutaneous (sc) injection of a 1:1 mix of vaccine and adjuvant in a total volume of 100 μl. The booster vaccination was given at 21 days after the primary vaccination. The experiments ended 10 days after booster vaccination. Negative control groups that were included received injections with a 1:1 mix of PBS and adjuvant in a total volume of 100 μl (sham control). Ear thickness was measured in duplicate before vaccine challenge and 24 h thereafter, using a digital micrometer (Mitutoyo Digimatic 293561, Veenendaal, the Netherlands). The DTH response was calculated by subtracting the basal ear thickness from the value at 24 h after challenge.

Substance: 2′-fucosyllactose [1% 2′-FL]
- increase of DTH response (compared with control diet): 71%
- effect on ear swelling / DTH response (in words) (compared with control-fed animals): increased ear swelling
- Δ DTH (ear swelling DTH minus sham control): 80.4 μm
- Relative DTH (Δ DTH relative to control diet (=1)): 1.71
